The nature of data set [1]: In vitro metabolism in hepatic microsomes (LC/MS). It counts as in vitro ADME, rat. The note with it: in the presence of NADPH. As for the experimental part:
(§1) In Vitro Metabolism in Hepatic Microsomes—A compound of structure (I) was incubated for specified times at 37° C. with rat liver microsomes (e.g., 1 mg protein/ml; Sigma-Aldrich, St. Louis, Mo.) in potassium phosphate buffer (100 mM) containing NADPH (0 or 1 mM). The mixture was then chilled on ice, and 0.5 ml of ice-cold ethyl acetate was added. Samples were centrifuged for 15 min at 3,000 rpm, and the supernatant was evaporated to dryness under nitrogen. The residue was dissolved in 150 μl mobile phase (acetonitrile:water 3:1, containing 0.1% formic acid) for LC/MS analysis. Reverse-phase HPLC separations were carried out using a Waters C18 column (2.1×100 mm, […]) equipped with a solvent delivery system (Waters model 2690, Milford, Mass.). The solvent system consisted of a linear gradient from 5 to 95% acetonitrile run over 16 min (0.2 mL/min flow rate). Mass spectra were acquired on an Alliance HT 2790+ZQ mass spectrometer using negative ion detection.
as §1, with “Liquid Chromatography/Mass Spectrometry—Compounds (each at 5 μM) were” for “In Vitro Metabolism in Hepatic Microsomes—A compound of structure (I) was”, “(1” for “(e.g., 1”, “150” for “150 μl”, “detection, scanning from 150 to 1500 Da. The electrospray ion source parameters were as follows: capillary voltage 3.5 kV (positive ion mode), cone voltage 37 V, source temperature 120° C., desolvation temperature 250° C., cone gas flow 25 L/h, and dessolvation gas flow 350 L/h.” for “detection.”
PPQ-102 is a small-molecule inhibitor of CFTR chloride conductance with efficacy in preventing and reversing cyst formation in an organ culture model of PKD (see, e.g., Tradtrantip et al., J. Med. Chem. 2009, supra; Int'l Patent Appl. Publication No. WO 2011/019737). Preliminary analysis of the metabolic stability and aqueous solubility of PPQ-102, indicated poorer metabolic stability and lower water solubility (˜2 μM in albumin-free saline) than desired for optimal drugability. In vitro metabolic stability was determined by compound incubation with hepatic microsomes at 37° C. for specified times in the absence vs. presence of NADPH, following by LC/MS analysis. Shown in FIG. 6A is PPQ-102 disappearance in hepatic microsomes in the presence of NADPH, with ˜60% disappearance in 30 min.

The target of data set [2] is T1, human wildtype CFTR (Homo sapiens, UniProt P13569). The experiment in a line: Short-circuit current analysis of CFTR inhibition in CFTR-expressing FRT cells. The class given is cell-based. Further details: expressed in transfected cells; host or cells: Fischer rat thyroid (FRT) epithelial cells on Snapwell inserts. The note with it: for inhibition of short-circuit current: 100 nM. As for the experimental part: Short-Circuit Current—Snapwell inserts containing CFTR-expressing FRT cells were mounted in an Ussing chamber. The hemichambers contained 5 mL of buffer containing 75 mM NaCl and 75 mM Na gluconate (apical) and 150 mM NaCl (basolateral) (pH 7.3), and the basolateral membrane was permeabilized with 250 μg/mL amphotericin B, as described (see, e.g., Sonawane et al., FASEB J 2006, supra). Short-circuit current was recorded continuously using a DVC-1000 voltage clamp (World Precision Instruments) using Ag/AgCl electrodes and 3 M KCl agar bridges.
Current was measured in CFTR-expressing FRT cells in which the basolateral membrane was permeabilized and in the presence of a transepithelial chloride concentration gradient, so that current is a quantitative linear measure of CFTR function. CFTR was activated by forskolin, followed by serial additions of increasing concentrations of test compounds.
CFTR inhibition potency was measured by short-circuit current analysis in FRT epithelial cells expressing human CFTR in presence of a transepithelial chloride gradient and in which the basolateral membrane was permeabilized with amphotericin B. Under these conditions short-circuit current is proportional to CFTR chloride conductance.

Data set [3] concerns the target T1, human wildtype CFTR. The experiment in a line: Fluorescence plate reader assay of CFTR inhibition (iodide influx). The class given is cell-based. Further details: expressed in transfected cells; host or cells: Fischer rat thyroid (FRT) cells. The settings on record: Determined by micro-plate reader assay; FRT cells co-expressing human wild type CFTR and YFP-H148Q. The procedure: Cell Culture and Plate Reader Assay of CFTR Inhibition—Fischer rat thyroid (FRT) cells co-expressing human wild type CFTR and the halide indicator YFP-H148Q were cultured in 96-well black-walled microplates (Corning Costar) at a density of 20,000 cells per well in Coon's modified F12 medium containing 10% fetal bovine serum, 2 mM L-glutamine, 100 U/mL penicillin and 100 μg/mL streptomycin. CFTR chloride conductance was assayed at 48 h after plating on a FluoStar fluorescence plate reader (BMG Lab Technologies) as described (see, e.g., Ma et al., J Clin Invest. 2002, supra). Each well was washed 3 times with PBS, leaving 60 μL PBS. Test compounds were added and incubated with the cells for 45 min. Then, 5 μL of a CFTR-activating cocktail (10 μM forskolin, 100 μM IBMX, 20 μM apigenin in PBS) was added. After 15 min, each well was assayed for iodide influx by recording fluorescence continuously (200 ms per point) for 2 s (baseline) and then for 10 s after rapid addition of 160 μL of isosmolar PBS in which 137 mM chloride was replaced by iodide. The initial rate of iodide influx was computed from fluorescence data by non-linear regression.
Initial testing of the compounds for the capability to inhibit CFTR was performed using a plate-reader assay in which iodide influx was measured in FRT cells co-expressing human wild type CFTR and the iodide-sensing yellow fluorescent protein YFP-H148Q/1152L. […] Table B below provides IC50 values for PPQ and BPO compounds.
The relative IC50 values obtained from the plate reader assay are useful for comparisons. Absolute IC50 values obtained from the plate-reader assay are approximate, generally underestimating compound potency because of assay non-linearities, pH-dependent YFP fluorescence, the use of iodide instead of chloride, and compound dilution at the start of the assay (see, e.g., Galietta et al., Am. J. Physiol. Cell Physiol. 281:C1734-42 (2001)).

Where [4] appears, read: short-circuit current, FRT cells expressing human CFTR, forskolin-stimulated, read-out: IC50 for inhibition of CFTR chloride conductance.
Where [5] appears, read: Determined by short-circuit current assay, read-out: IC50 (μM)^B.

Values joined by “and” are separate entries in the source; they are usually repeats but may differ in a detail not shown here. Identical values can stand only once.

T1 sequence (P13569 whole entry): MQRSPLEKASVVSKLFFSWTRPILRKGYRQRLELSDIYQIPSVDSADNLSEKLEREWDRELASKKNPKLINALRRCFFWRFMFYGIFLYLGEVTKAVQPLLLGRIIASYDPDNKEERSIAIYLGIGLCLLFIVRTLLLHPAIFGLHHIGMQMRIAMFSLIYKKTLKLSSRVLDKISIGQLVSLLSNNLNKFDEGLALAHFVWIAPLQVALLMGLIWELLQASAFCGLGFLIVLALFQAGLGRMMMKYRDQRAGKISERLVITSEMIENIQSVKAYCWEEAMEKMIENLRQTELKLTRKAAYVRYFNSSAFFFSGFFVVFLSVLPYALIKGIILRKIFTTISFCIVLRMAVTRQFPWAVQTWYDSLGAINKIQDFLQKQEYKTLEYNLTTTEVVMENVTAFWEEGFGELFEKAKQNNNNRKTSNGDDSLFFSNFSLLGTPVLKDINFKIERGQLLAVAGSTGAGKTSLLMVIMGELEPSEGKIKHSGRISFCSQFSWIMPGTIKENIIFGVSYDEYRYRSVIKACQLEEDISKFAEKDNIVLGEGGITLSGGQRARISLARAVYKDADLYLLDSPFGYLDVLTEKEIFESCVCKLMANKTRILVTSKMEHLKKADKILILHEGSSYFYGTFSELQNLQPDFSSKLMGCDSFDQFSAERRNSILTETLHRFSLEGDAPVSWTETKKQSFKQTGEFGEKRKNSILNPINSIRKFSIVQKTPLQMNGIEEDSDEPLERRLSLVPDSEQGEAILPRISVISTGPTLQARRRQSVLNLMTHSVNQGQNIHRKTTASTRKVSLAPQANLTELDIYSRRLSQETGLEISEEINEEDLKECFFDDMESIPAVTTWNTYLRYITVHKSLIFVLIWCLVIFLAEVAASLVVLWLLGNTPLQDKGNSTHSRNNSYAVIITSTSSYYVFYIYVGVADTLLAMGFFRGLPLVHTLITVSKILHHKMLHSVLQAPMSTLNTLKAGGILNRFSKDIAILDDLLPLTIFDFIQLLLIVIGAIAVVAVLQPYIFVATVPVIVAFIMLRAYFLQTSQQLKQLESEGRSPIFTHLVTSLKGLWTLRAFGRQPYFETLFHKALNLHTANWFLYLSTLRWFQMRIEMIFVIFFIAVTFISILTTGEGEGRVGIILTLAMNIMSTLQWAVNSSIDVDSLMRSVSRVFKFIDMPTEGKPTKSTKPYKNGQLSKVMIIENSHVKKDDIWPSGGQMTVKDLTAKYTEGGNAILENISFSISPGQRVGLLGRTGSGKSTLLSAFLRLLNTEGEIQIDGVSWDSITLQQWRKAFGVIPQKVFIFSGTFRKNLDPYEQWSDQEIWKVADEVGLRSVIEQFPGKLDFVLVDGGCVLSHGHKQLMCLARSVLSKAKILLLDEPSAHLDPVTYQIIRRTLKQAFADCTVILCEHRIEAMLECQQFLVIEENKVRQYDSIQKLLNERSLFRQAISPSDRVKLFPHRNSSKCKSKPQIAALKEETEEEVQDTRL

For orientation: IC50 means the concentration needed to halve the response being measured. For the molecule `Cn1c(=O)c2c(-c3ccccc3)n3c(c2n(C)c1=O)[C@H](c1ccc(Br)o1)Oc1ccc(C(=O)O)cc1-3` (single isomer, unassigned) [(R)-BPO-27, 6R-(5-Bromofuran-2-yl)-7,9-dimethyl-8,10-dioxo-11-phenyl-7,8,9,10-tetrahydro-6H-benzo[b]pyrimido [4′,5′:3,4]pyrrolo [1,2-d][1,4]oxazine-2-carboxylic acid], the “metabolic stability in hepatic microsomes (in words)” value (“metabolic stability” below) in data set [1] is listed as “little metabolism”. The “inhibition of short-circuit current” value in data set [2] is given as “completed inhibited current”. Also, in data set [2] (setting [4]), the IC50 was 0.004 µM and ~0.004 µM.

Regarding `Cn1c(=O)c2c(-c3ccccc3)n3c(c2n(C)c1=O)[C@@H](c1ccc(Br)o1)Oc1ccc(C(=O)O)cc1-3` (single isomer, unassigned) [(S)-BPO-27, 6S-(5-Bromofuran-2-yl)-7,9-dimethyl-8,10-dioxo-11-phenyl-7,8,9,10-tetrahydro-6H-benzo[b]pyrimido [4′,5′:3,4]pyrrolo [1,2-d][1,4]oxazine-2-carboxylic acid], the “metabolic stability” value in data set [1] is recorded as “little metabolism”. Besides, in data set [2], the “inhibition of short-circuit current” value is given as “no significant inhibition”. For the same molecule, in data set [2] (short-circuit current), the “inhibition of CFTR chloride conductance (in words)” value is “inactive”. In addition, the IC50 in data set [2] (setting [4]) is around 0.004 µM.

As for `Cn1c(=O)c2c(-c3ccccc3)n3c(c2n(C)c1=O)C(c1ccc(Br)o1)Oc1ccccc1-3` (stereo not drawn) [BPO-16, 6-(5-Bromofuran-2-yl)-7,9-dimethyl-11-phenyl-6H-benzo[b]pyrimido[4′,5′-3,4]pyrrolo[1,2-d]oxazine-8,10-(7H,9H)-dione], the “metabolic stability” value in data set [1] is listed as “better stability than PPQ-102”. Besides, the IC50 was found to be 0.2 µM in data set [3] and 0.09 µM in data set [2] (setting [5]).

`Cn1c(=O)c2c(-c3ccccc3)n3c(c2n(C)c1=O)C(c1ccc(Br)o1)Oc1ccc([N+](=O)[O-])cc1-3` (stereo not drawn) [BPO-21, 6-(5-bromofuran-2-yl)-7,9-Dimethyl-2-nitro-11-phenyl-6H-benzo[b]pyrimido[4′,5′-3,4]pyrrolo[1,2-d]oxazine-8,10-(7H,9H)-dione]: the “metabolic stability” value in data set [1] was “excellent metabolic stability”. Moreover, the IC50 in data set [3] is 0.12 µM; in data set [2] (setting [5]) it was 0.025 µM. In data set [2] (short-circuit current), the “inhibition of CFTR chloride conductance (in words)” value is on record as “substantially greater CFTR inhibition potency”.

Turning to `Cc1ccc(C2Oc3ccc([N+](=O)[O-])cc3-n3c(-c4ccccc4)c4c(=O)n(C)c(=O)n(C)c4c32)o1` (stereo not drawn) [BPO-22, 7,9-Dimethyl-6-(5-methylfuran-2-yl)-2-nitro-11-phenyl-6H-benzo[b]pyrimido[4′,5′-3,4]pyrrolo[1,2-d]oxazine-8,10-(7H,9H)-dione], the IC50 came to 0.1 µM in data set [3] and 0.025 µM in data set [2] (setting [5]).

In the case of `Cn1c(=O)c2c(-c3ccccc3)n3c(c2n(C)c1=O)C(c1ccc(Br)o1)Nc1ccccc1-3` (stereo not drawn) [PPQ-10, 6-(5-Bromofuran-2-yl)-7,9-dimethyl-11-phenyl-5,6-dihydropyrimido[4′,5′-3,4]pyrrolo[1,2-a]quinoxaline-8,10-(7H,9H)-dione], the “metabolic stability” value in data set [1] is “substantially more stable than PPQ-102”. The IC50 was determined as 0.09 µM in data set [3] and 0.05 µM in data set [2] (setting [5]).

Turning to `Cn1c(=O)c2c(-c3ccccc3)n3c(c2n(C)c1=O)C(c1ccc(I)o1)Nc1ccccc1-3` (stereo not drawn) [PPQ-11, 7,9-Dimethyl-6-(5-iodofuran-2-yl)-11-phenyl-5,6-dihydropyrimido[4′,5′-3,4]pyrrolo[1,2-a]quinoxaline-8,10-(7H,9H)-dione], the IC50 in data set [3] is 0.17 µM; in data set [2] (setting [5]), 0.1 µM.

The values are drawn from USRE48842E1, “Pyrimido-pyrrolo-oxazine-dione compound inhibitors of the cystic fibrosis transmembrane conductance regulator protein and uses therefor” (The Regents of the University of California, priority 2011, dated 2021).
